According to the supplement of paper PMC8671470:
± gives the standard deviation of the averaged measurements.

Key:
Conditions in all cases: 72 h
HL-60 [1] = test: area under dose-response curve (viability, 1 nM-10 uM) (fraction (0-1)); higher = more sensitive
How it was run: (§1)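 HL-60 cells in RPMI 1640 with 10% FBS were rescreened against the full library on 384-well plates at five tenfold concentrations, 1–10,000 nM, in duplicate. Each screen was run with DMSO or 100 nM of one of three metabolic inhibitors, for 72 h at 37 °C, 5% CO2. Viability was read by CellTiter-Glo and normalised to DMSO and 10 μM proteasome-inhibitor wells. Where given, area under the curve came from four-parameter log-logistic fits (drc, PharmacoGx).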

ML-2 [2] = test: cell viability (% survival relative to DMSO control, bortezomib = 0%); higher = less cytotoxic
How it was run: (§2)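 Fifteen myeloid leukaemia cell lines (10 AML, 5 CML) were seeded at a density titrated to the linear growth range into 384-well plates pre-printed with compounds at 1, 10, 100, 1000 or 10000 nM in duplicate. Plates were incubated for 72 h at 37 °C with 5% CO2. Viability was then read by CellTiter-Glo luminescence. Each value is percent survival averaged over the duplicates, with vehicle set to 100% and a 10 µM positive control to 0%.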

MV4-11 [3] = test: as above
How it was run: as §2

MOLM-13 [4] = test: as above
How it was run: as §2

HEL [5] = test: as above
How it was run: as §2

LAMA-84 [6] = test: as above
How it was run: as §2

K-562 [7] = test: as above
How it was run: as §2

KG-1 [8] = test: as above
How it was run: as §2

KCL-22 [9] = test: as above
How it was run: as §2

HL-60 [10] = test: as above
How it was run: as §2

BV-173 [11] = test: as above
How it was run: as §2

SHI-1 [12] = test: as above
How it was run: as §2

HL-60 [13] = test: cell viability (% survival relative to DMSO control); higher = less cytotoxic
How it was run: as §1

ML-2 [14] = system: ML-2
How it was run: (§3)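 Fifteen myeloid leukaemia lines in RPMI 1640 were treated for 72 h at 37 °C and 5% CO2 with five tenfold doses from 1 to 10,000 nM, in duplicate. ATP luminescence was normalised to vehicle and to a positive control at 10 µM, then fitted with a four-parameter log-logistic model. The IC50 came from these fits.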

MV4-11 [15] = system: MV4-11
How it was run: as §3

MOLM-13 [16] = system: MOLM-13
How it was run: as §3

HEL [17] = system: HEL
How it was run: as §3

KU-812 = system: KU-812
How it was run: as §3

LAMA-84 [18] = system: LAMA-84
How it was run: as §3

K-562 [19] = system: K-562
How it was run: as §3

Mono-Mac-6 = system: Mono-Mac-6
How it was run: as §3

KG-1 [20] = system: KG-1
How it was run: as §3

NOMO-1 = system: NOMO-1
How it was run: as §3

KCL-22 [21] = system: KCL-22
How it was run: as §3

HL-60 [22] = system: HL-60
How it was run: as §3

BV-173 [23] = system: BV-173
How it was run: as §3

SHI-1 [24] = system: SHI-1
How it was run: as §3

THP-1 = system: THP-1
How it was run: as §3

NC(CCC(=O)NC(CSCc1ccc(Br)cc1)C(=O)NCC(=O)OC1CCCC1)C(=O)OC1CCCC1 (stereo unspecified) [S-para-Bromobenzylglutathione cyclopentyl diester]
Conditions	area under dose-response curve, co-treatment: DMSO vehicle	area under dose-response curve, co-treatment: GSK2194069 100 nM	area under dose-response curve, co-treatment: pictilisib 100 nM	cell viability, 1 nM [%]	cell viability, 10 nM [%]	cell viability, 100 nM [%]	cell viability, 1000 nM [%]	cell viability, 10000 nM [%]
BV-173 [11]	–	–	–	96.5	88.3	97	77.1	28
HEL [5]	–	–	–	114	88.2	113	102	77
HL-60 [1]	< 0.0301	< 0.0301	0.0772	–	–	–	–	–
HL-60 [10]	–	–	–	97.3	92.7	105	90	100
K-562 [7]	–	–	–	105	106	104	112	93.2
KCL-22 [9]	–	–	–	103	97.9	104	111	98.3
KG-1 [8]	–	–	–	145	102	49.9	43.4	105
LAMA-84 [6]	–	–	–	101	110	93.3	98.2	98.9
ML-2 [2]	–	–	–	102	87.1	105	105	8.21
MOLM-13 [4]	–	–	–	113	111	92.6	90	89.2
MV4-11 [3]	–	–	–	109	89.3	106	98.7	93.4
SHI-1 [12]	–	–	–	98.2	109	98.5	91.3	99.9

cell viability [%], HL-60 [13]
Conditions	0.001 µM	0.01 µM	0.1 µM	1 µM	10 µM
co-treatment: AZD3965 100 nM	101 ± 4	98.9 ± 1.1	102 ± 3.9	91.1 ± 10	77.1 ± 6.2
co-treatment: DMSO vehicle	102 ± 2.7	91.6 ± 11	106 ± 1.5	97.4 ± 3	94.4 ± 3.5
co-treatment: GSK2194069 100 nM	104.2 ± 1	85.8 ± 36	110 ± 5.5	95 ± 9.2	87.2 ± 5.7
co-treatment: pictilisib 100 nM	97.1 ± 9.2	87.5 ± 17	113 ± 9.7	76.7 ± 18	55.5 ± 3.4

Conditions	IC50 (cell viability) [µM]
BV-173 [23]	2.32
HEL [17]	> 10
HL-60 [22]	> 10
K-562 [19]	> 10
KCL-22 [21]	> 10
KG-1 [20]	> 10
KU-812	> 10
LAMA-84 [18]	> 10
ML-2 [14]	3.95
MOLM-13 [16]	> 10
MV4-11 [15]	> 10
Mono-Mac-6	> 10
NOMO-1	> 10
SHI-1 [24]	> 10
THP-1	> 10

COc1cc(C2Oc3cc(C4Oc5cc(O)cc(O)c5C(=O)C4O)ccc3OC2CO)ccc1O (stereo unspecified) [Silibinin]
Conditions	area under dose-response curve, co-treatment: AZD3965 100 nM	area under dose-response curve, co-treatment: DMSO vehicle	area under dose-response curve, co-treatment: GSK2194069 100 nM	area under dose-response curve, co-treatment: pictilisib 100 nM	cell viability, 1 nM [%]	cell viability, 10 nM [%]	cell viability, 100 nM [%]	cell viability, 1000 nM [%]	cell viability, 10000 nM [%]
BV-173 [11]	–	–	–	–	90.9	93.5	110	95.2	87.2
HEL [5]	–	–	–	–	101	100	115	89.2	103
HL-60 [1]	< 0.0301	< 0.0301	< 0.0301	< 0.0301	–	–	–	–	–
HL-60 [10]	–	–	–	–	91.9	92.9	96.9	105	104
K-562 [7]	–	–	–	–	95	97.7	102	94.5	76.4
KCL-22 [9]	–	–	–	–	99.3	95.3	84.2	102	95.1
KG-1 [8]	–	–	–	–	91.3	104	99.2	94.3	93.8
LAMA-84 [6]	–	–	–	–	98.1	102	110	95.6	95
ML-2 [2]	–	–	–	–	93	99.2	87.2	95.8	91.1
MOLM-13 [4]	–	–	–	–	99.8	103	103	106	103
MV4-11 [3]	–	–	–	–	100	95.7	97.2	110	98.8
SHI-1 [12]	–	–	–	–	102	107	89.3	98.6	105

cell viability [%], HL-60 [13]
Conditions	0.001 µM	0.01 µM	0.1 µM	1 µM	10 µM
co-treatment: AZD3965 100 nM	107 ± 10	99.1 ± 2.1	107 ± 14	102 ± 2.4	102 ± 1.8
co-treatment: DMSO vehicle	100 ± 2.7	100.8 ± 0.69	104 ± 4.8	102 ± 4.2	97.72 ± 0.59
co-treatment: GSK2194069 100 nM	107 ± 3.5	101 ± 0.25	105 ± 9.5	105 ± 2.2	97.3 ± 5
co-treatment: pictilisib 100 nM	103 ± 3.9	103 ± 3.5	107 ± 12	106 ± 9.9	95.8 ± 2.6

Conditions	IC50 (cell viability) [µM]
BV-173 [23]	> 10
HEL [17]	> 10
HL-60 [22]	> 10
K-562 [19]	> 10
KCL-22 [21]	> 10
KG-1 [20]	> 10
KU-812	> 10
LAMA-84 [18]	> 10
ML-2 [14]	> 10
MOLM-13 [16]	> 10
MV4-11 [15]	> 10
Mono-Mac-6	> 10
NOMO-1	> 10
SHI-1 [24]	> 10
THP-1	> 10

Fc1ccc(CNc2ncnc3ccc(F)cc23)cc1 [Spautin 1]
Conditions	area under dose-response curve, co-treatment: AZD3965 100 nM	area under dose-response curve, co-treatment: DMSO vehicle	area under dose-response curve, co-treatment: GSK2194069 100 nM	area under dose-response curve, co-treatment: pictilisib 100 nM	cell viability, 1 nM [%]	cell viability, 10 nM [%]	cell viability, 100 nM [%]	cell viability, 1000 nM [%]	cell viability, 10000 nM [%]
BV-173 [11]	–	–	–	–	98.3	96.8	110	79.7	35.1
HEL [5]	–	–	–	–	91.3	98.3	94.1	89.4	47.9
HL-60 [1]	< 0.0301	0.0409	0.0623	0.0324	–	–	–	–	–
HL-60 [10]	–	–	–	–	105	102	110	117	47.4
K-562 [7]	–	–	–	–	103	97	100	69.8	16.9
KCL-22 [9]	–	–	–	–	112	113	108	88.6	61.9
KG-1 [8]	–	–	–	–	108	98.5	103	66.8	32.6
LAMA-84 [6]	–	–	–	–	103	103	93.5	66.4	26.7
ML-2 [2]	–	–	–	–	108	84.7	97	87.9	63.2
MOLM-13 [4]	–	–	–	–	93.1	89.7	122	108	50.9
MV4-11 [3]	–	–	–	–	98.8	92.4	102	64.7	33
SHI-1 [12]	–	–	–	–	113	100	106	95.9	62.2

cell viability [%], HL-60 [13]
Conditions	0.001 µM	0.01 µM	0.1 µM	1 µM	10 µM
co-treatment: AZD3965 100 nM	78.7 ± 29	99.98 ± 0.92	101 ± 1.4	103 ± 2.2	71.3 ± 9.4
co-treatment: DMSO vehicle	98.11 ± 0.4	97.89 ± 0.34	109 ± 1.2	96.7 ± 8	78.31 ± 0.12
co-treatment: GSK2194069 100 nM	91.31 ± 0.4	100 ± 4.9	104 ± 8.1	89.5 ± 8.1	58 ± 9.4
co-treatment: pictilisib 100 nM	100 ± 2.8	96.8 ± 2.8	108 ± 16	98.7 ± 6.6	80.4 ± 9.9

Conditions	IC50 (cell viability) [µM]
BV-173 [23]	2.75
HEL [17]	9.11
HL-60 [22]	9.64
K-562 [19]	1.34
KCL-22 [21]	> 10
KG-1 [20]	1.57
KU-812	1.39
LAMA-84 [18]	1.49
ML-2 [14]	> 10
MOLM-13 [16]	> 10
MV4-11 [15]	1.52
Mono-Mac-6	> 10
NOMO-1	> 10
SHI-1 [24]	> 10
THP-1	> 10
